Measured values taken from US7799824B2, “Quaternary salt CCR2 antagonists” (OraPharma, Inc., priority 2004, dated 2010).
Where “and” joins values, the source holds several entries; their conditions need not be identical. Identical values can stand only once. Each block holds one compound with its values, some of them ahead of it.

Tests used:
[1] = tested on: Ovalbumin-induced Allergic Rhinitis; assay: Ovalbumin-induced allergic rhinitis in mice, therapeutic effect; type: in vivo, BALB/c mice
Procedure: BALB/c mice were sensitized by i.p. injection of OVA emulsified in alum (Day 0, 5, 14, 21). Groups of mice were each challenged by intranasal injection of OVA (Day 22-35, 38).
Control group mice received an equal volume of vehicle by intranasal injection. Nasal symptoms (number of sneezes and episodes of nose rubbing by the front paws) were counted during the 5 min period following the last intranasal injection (Day 38).
The anti-histamine Pyralimine and the mast cell-stabilizing agent Ketotifen were used as positive controls.

[2] = tested on: Ovalbumin-induced Allergic Rhinitis; assay: Ovalbumin-induced allergic rhinitis in mice, prophylactic effect; type: in vivo, BALB/c mice
Procedure: BALB/c mice were sensitized by i.p. injection of OVA emulsified in alum (Day 0, 5, 14, 21). Groups of mice were each challenged by intranasal injection of OVA (Day 22-35, 38). Control group mice received an equal volume of vehicle by intranasal injection. Nasal symptoms (number of sneezes and episodes of nose rubbing by the front paws) were counted during the 5 min period following the last intranasal injection (Day 38). […] The histamine receptor antagonist […]® was used as a positive control.

[3] = target: T1, CCR2 (Homo sapiens, UniProt P41597); assay: MCP-1 Receptor Binding Assay in THP-1 Cells; conditions: for inhibition at 25 µM: MCP-1 binding to CCR2, test concentration of 25 μM, unless indicated otherwise, read-out: % Inhibition Ligand Binding; for IC50: THP-1 cells, 0.5 nM 125I labeled MCP-1, 2 hours at 30° C., read-out: Mean Ligand Binding IC50 (inhibition of MCP-1 binding to CCR2)
T1 sequence (P41597 1-360 isoform P41597-2): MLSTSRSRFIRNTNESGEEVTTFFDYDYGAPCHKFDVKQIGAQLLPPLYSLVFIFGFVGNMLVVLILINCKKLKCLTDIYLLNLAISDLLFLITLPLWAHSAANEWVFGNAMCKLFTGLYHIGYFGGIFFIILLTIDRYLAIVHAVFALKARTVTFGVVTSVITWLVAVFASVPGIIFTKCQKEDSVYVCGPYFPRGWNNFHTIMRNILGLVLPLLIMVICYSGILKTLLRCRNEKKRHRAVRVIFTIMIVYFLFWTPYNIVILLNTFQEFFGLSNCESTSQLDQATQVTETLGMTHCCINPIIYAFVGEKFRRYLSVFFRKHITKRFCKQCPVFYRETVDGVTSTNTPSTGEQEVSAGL
Procedure, shortened: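 THP-1 cells; bound radioactivity collected on filter plates and counted by scintillation. Buffer-only blanks subtracted, drug-treated values compared with vehicle; nonspecific binding defined with 1 μM unlabeled MCP-1.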

[4] = tested on: ovalbumin (OVA)-induced asthma; assay: Ovalbumin (OVA)-induced asthma in mice, mast cell-dependent model; type: in vivo; conditions: 30 mg/kg i.p., Day 42-46
Procedure: Mice were sensitized by i.p. injection with OVA in saline (10 μg) on alternate days (Day 0, 2, 4, 6, 8, 10, 12). Groups of mice were each challenged by intranasal injection of OVA (Day 40, 43, 46). Compound 17 was administered by i.p. injection (30 mg/kg) on consecutive days (Day 42, 43, 44, 45, 46). Compared to vehicle, leukocyte influx was inhibited by 95% and 55% (in two separate assays), LTC4 influx was inhibited by 90% and IL-4 influx was inhibited by 85%.

[5] = tested on: ovalbumin (OVA)-induced asthma; assay: Ovalbumin (OVA)-induced asthma in mice, mast cell-independent model; type: in vivo
Procedure: Mice were sensitized by i.p. injection of OVA emulsified in adjuvant (Day 1 and 14). Groups of mice were each challenged by intranasal injection of OVA (Day 25, 26, 27). Compound 17 was administered by i.p. injection (10 and 30 mg/kg) before each intranasal challenge (Day 25, 26, 27).

[6] = positive controls, dose not given
[7] = positive control, dose not given
[8] = intranasal 10 μg/nostril four times per day, Days 29-38

inhibition at 25 µM [3]: 54%
Structure (SMILES): CCC[N+](C)(Cc1ccc(NC(=O)c2ccc3ccccc3c2)cc1)C1CCOCC1 (centres unmarked) [Cpd 92, methyl-{4-[(naphthalene-2-carbonyl)-amino]-benzyl}-propyl-(tetrahydro-pyran-4-yl)-ammonium iodide]

IC50 [3]: 1100 nM
Structure (SMILES): C[N+](C)(Cc1ccc(NC(=O)C2=Cc3c(Cl)cc(Cl)cc3OC2)cc1)C1CCCCC1 [Cpd 101, cyclohexyl-{4-[(5,7-dichloro-2H-chromene-3-carbonyl)-amino]-benzyl}-dimethyl-ammonium iodide]

IC50 [3]: 3400 nM
Structure (SMILES): Cc1cc(Cl)ccc1C(=O)Nc1ccc(C[N+](C)(C)C2CCOCC2)cc1 [Cpd 32, [4-(4-chloro-2-methyl-benzoylamino)-benzyl]-dimethyl-(tetrahydro-pyran-4-yl)-ammonium iodide]

IC50 [3]: 10200 nM
Structure (SMILES): C[N+](C)(CCc1ccc(NC(=O)c2cccc(Br)c2)cc1)C1CCOCC1 [Cpd 37, {2-[4-(3-bromo-benzoylamino)-phenyl]-ethyl}-dimethyl-(tetrahydro-pyran-4-yl)-ammonium iodide]

IC50 [3]: 8400 nM
Structure (SMILES): C[N+]1(Cc2ccc(CNC(=O)C=Cc3ccc(Cl)c(Cl)c3)cc2)CCCCC1 [Cpd 48, 1-(4-{[3-(3,4-dichloro-phenyl)-acryloylamino]-methyl}-benzyl)-1-methyl-piperidinium iodide]

IC50 [3]: 110 nM
Structure (SMILES): C[N+](C)(Cc1ccc(NC(=O)c2cc3cc(Cl)ccc3[nH]2)cc1)CC1CC2CCC1C2 (centres unmarked) [Cpd 166, bicyclo[2.2.1]hept-2-ylmethyl-{4-[(5-chloro-1H-indole-2-carbonyl)-amino]-benzyl}-dimethyl-ammonium iodide]

IC50 [3]: 1600 nM
Structure (SMILES): C[N+](C)(Cc1ccc(NC(=O)c2cn(Cc3ccccc3)c3ccccc23)cc1)C1CCOCC1 [Cpd 162, {4-[(1-benzyl-1H-indole-3-carbonyl)-amino]-benzyl}-dimethyl-(tetrahydro-pyran-4-yl)-ammonium iodide]

More lines, now with the values behind:

Structure (SMILES): CN1CCC(=C2c3ccccc3CC(=O)c3sccc32)CC1 [Ketotifen]
inhibition of nasal symptoms (rubbing) [1, 6]: 81% | inhibition of nasal symptoms (sneezing) [1, 6]: 50%

Structure (SMILES): CN1CCCC(n2nc(Cc3ccc(Cl)cc3)c3ccccc3c2=O)CC1 (centres unmarked) [Astelin, reference compound]
inhibition of nasal symptoms (rubbing) [2, 7]: 89% | inhibition of nasal symptoms (sneezing) [2, 7]: 51%

Structure (SMILES): COc1ccc(CN(CCN(C)C)c2ccccn2)cc1 [Pyralimine]
inhibition of nasal symptoms (rubbing) [1, 6]: 85% | inhibition of nasal symptoms (sneezing) [1, 6]: 60%

Structure (SMILES): C[N+](C)(Cc1ccc(NC(=O)c2cc3cc(Cl)ccc3[nH]2)cc1)C[C@@H]1CCCO1 [Cpd 165, (2S)-{4-[(5-chloro-1H-indole-2-carbonyl)-amino]-benzyl}-dimethyl-(tetrahydro-furan-2-ylmethyl)-ammonium iodide]
IC50 [3]: 3300 nM

Structure (SMILES): Cc1cccc2c1OCC(C(=O)Nc1ccc(C[N+](C)(C)C3CCOCC3)cc1)=C2 [Cpd 112, dimethyl-{4-[(8-methyl-2H-chromene-3-carbonyl)-amino]-benzyl}-(tetrahydro-pyran-4-yl)-ammonium iodide]
IC50 [3]: 150 nM

Structure (SMILES): Cn1cc(C(=O)Nc2ccc(C[N+](C)(C)C3CCOCC3)cc2)c2ccccc21 [Cpd 161, dimethyl-{4-[(1-methyl-1H-indole-3-carbonyl)-amino]-benzyl}-(tetrahydro-pyran-4-yl)-ammonium iodide]
inhibition at 25 µM [3]: 33%

Structure (SMILES): C[N+](C)(Cc1ccc(NC(=O)C2=Cc3cc(Br)ccc3OC2)cc1)C1CCOCC1 [Cpd 95, {4-[(6-bromo-2H-chromene-3-carbonyl)-amino]-benzyl}-dimethyl-(tetrahydro-pyran-4-yl)-ammonium iodide]
IC50 [3]: 180 nM

Structure (SMILES): C[N+]1(Cc2ccc(NC(=O)c3ccc(Cl)c(Cl)c3)cc2)CCOCC1 [Cpd 59, 4-[4-(3,4-dichloro-benzoylamino)-benzyl]-4-methyl-morpholin-4-ium iodide]
IC50 [3]: 10000 nM

Structure (SMILES): C[N+](C)(Cc1ccc(NC(=O)c2ccc(Cl)c(Cl)c2)cc1)C1CCOCC1.[Cl-] [Cpd 17, [4-(3,4-dichloro-benzoylamino)-benzyl]-dimethyl-(tetrahydro-pyran-4-yl)-ammonium chloride]
inhibition of IL-4 influx compared to vehicle [4]: 85% | inhibition of LTC4 influx compared to vehicle [4]: 90% | inhibition of leukocyte influx compared to vehicle ([4]; two separate assays): 95% and 55% | inhibition of leukocyte influx compared to vehicle ([5]; 10 mg/kg i.p. before each intranasal challenge): 40% | inhibition of leukocyte influx compared to vehicle ([5]; 30 mg/kg i.p. before each intranasal challenge): 70% | inhibition of nasal symptoms (rubbing) [1, 8]: 42% | inhibition of nasal symptoms (sneezing) [1, 8]: 0% | inhibition of nasal symptoms (rubbing) ([2]; intranasal 10 μg/nostril): 57% | inhibition of nasal symptoms (sneezing) ([2]; intranasal 10 μg/nostril): 64% | inhibition of nasal symptoms (rubbing) ([2]; intranasal 30 μg/nostril): 71% | inhibition of nasal symptoms (sneezing) ([2]; intranasal 30 μg/nostril): 82%

Structure (SMILES): C[N+](C)(Cc1ccc(NC(=O)C=Cc2cccc(Cl)c2)cc1)C1CCOCC1 [Cpd 45, {4-[3-(3-chloro-phenyl)-acryloylamino]-benzyl}-dimethyl-(tetrahydro-pyran-4-yl)-ammonium iodide]
IC50 [3]: 260 nM

Structure (SMILES): Cc1ccc2c(c1)C=C(C(=O)Nc1ccc(C[N+](C)(C)C3CCOCC3)cc1)CO2 [Cpd 103, dimethyl-{4-[(6-methyl-2H-chromene-3-carbonyl)-amino]-benzyl}-(tetrahydro-pyran-4-yl)-ammonium iodide]
IC50 [3]: 820 nM

Structure (SMILES): Cc1ccc(C(=O)Nc2ccc(C[N+](C)(C)C3CCCCC3)cc2)cc1Cl [Cpd 80, [4-(3-chloro-4-methyl-benzoylamino)-benzyl]-cyclohexyl-dimethyl-ammonium iodide]
IC50 [3]: 30 nM
